Laboratory results published in patent US8999664B2, “Method of improving salmon meat color” (JX Nippon Oil & Energy Corporation, priority 2006, dated 2015).

What was measured:
[1] = Carotenoid content in fish flesh of king salmon by HPLC; format: in vivo, Oncorhynchus tshawytscha; settings: for Ratio to astaxanthin: king salmon fish flesh; for Ratio to astaxanthin / Content in fish flesh: 3 months; for Content in fish flesh / concentration at 3 months: king salmon, flesh frozen 1 month, average of 15 fish; for concentration at 3 months: king salmon (Oncorhynchus tshawytscha), oral
Experimental: In the examples, the quantification of the carotenoid colorant was performed using high performance liquid chromatography (HPLC). Two columns of Wakosil-II 5 SIL-100 φ4.6×250 mm (produced by Wako Pure Chemical Industries, Ltd.) were connected to each other. An n-hexane:tetrahydrofuran:methanol (40:20:1) mixed solution was used as a mobile phase. A constant room temperature and a flow rate of 1.0 ml/min were used. The detection was performed at a wavelength of 470 nm. The feed or fish flesh was milled, and then the colorant was extracted with a tetrahydrofuran:methanol (20:1) mixed solution. The colorant was appropriately diluted with the mobile phase and analyzed by HPLC. 100 king salmons (Oncorhynchus tshawytscha) each weighing about 200 g were cultivated as a test division of being fed with the above-described fermented product, and another 100 king salmons each weighing about 200 g were cultivated as a test division of being fed with the above-described synthetic product. The salmons were fed in satiation in a marine fish pen for 3 months. After the 3 months of cultivating, 15 fish of each test division were sampled and weighed. […] The fish were immediately killed by cutting medulla. […] After the measurement, the fish flesh was frozen for preservation for 1 month. After being thawed, the fish flesh of the fish of each test division was analyzed in terms of the content of each carotenoid compound.

[2] = Carotenoid content in fish flesh of Atlantic salmon by HPLC; format: in vivo, Salmo salar; settings: for Ratio to astaxanthin: Atlantic salmon fish flesh; for Ratio to astaxanthin / Content in fish flesh: 12 months; for Content in fish flesh / concentration at 12 months: Atlantic salmon, flesh frozen 1 month, average of 20 fish; for concentration at 12 months: Atlantic salmon (Salmo salar), oral
Experimental: In the examples, the quantification of the carotenoid colorant was performed using high performance liquid chromatography (HPLC). Two columns of Wakosil-II 5 SIL-100 φ4.6×250 mm (produced by Wako Pure Chemical Industries, Ltd.) were connected to each other. An n-hexane:tetrahydrofuran:methanol (40:20:1) mixed solution was used as a mobile phase. A constant room temperature and a flow rate of 1.0 ml/min were used. The detection was performed at a wavelength of 470 nm. The feed or fish flesh was milled, and then the colorant was extracted with a tetrahydrofuran:methanol (20:1) mixed solution. The colorant was appropriately diluted with the mobile phase and analyzed by HPLC. 400 Atlantic salmons (Salmo salar) each weighing about 300 g were cultivated as a test division of being fed with the above-described fermented product, and another 400 Atlantic salmons each weighing about 300 g were cultivated as a test division of being fed with the above-described synthetic product. The salmons were fed in satiation in a marine fish pen for 12 months. After the 12 months of cultivating, 20 fish of each test division were landed and weighed. […] The fish were immediately killed by cutting medulla, and the fish flesh was measured in terms of the color tone by a spectrometer. […] After the measurement, the fish flesh was frozen for preservation for 1 month. After being thawed, the fish flesh of the 20 fish of each test division was analyzed in terms of the content of each carotenoid compound.

[3] = Carotenoid content in fish flesh of silver salmon by HPLC; format: in vivo, Oncorhynchus kisutch; settings: for Ratio to astaxanthin: silver salmon fish flesh; for Ratio to astaxanthin / Content in fish flesh: 6 months; for Content in fish flesh / concentration at 6 months: silver salmon, average of 10 fish; for concentration at 6 months: silver salmon (Oncorhynchus kisutch), fish flesh, oral
Experimental: In the examples, the quantification of the carotenoid colorant was performed using high performance liquid chromatography (HPLC). Two columns of Wakosil-II 5 SIL-100 φ4.6×250 mm (produced by Wako Pure Chemical Industries, Ltd.) were connected to each other. An n-hexane:tetrahydrofuran:methanol (40:20:1) mixed solution was used as a mobile phase. A constant room temperature and a flow rate of 1.0 ml/min were used. The detection was performed at a wavelength of 470 nm. The feed or fish flesh was milled, and then the colorant was extracted with a tetrahydrofuran:methanol (20:1) mixed solution. The colorant was appropriately diluted with the mobile phase and analyzed by HPLC. 300 silver salmons (Oncorhynchus kisutch) each weighing about 200 g were cultivated as a test division of being fed with the above-described fermented product, and another 300 silver salmons each weighing about 200 g were cultivated as a test division of being fed with the above-described synthetic product. The salmons were fed in satiation in a marine fish pen for 6 months. After the 6 months of cultivating, 10 fish of each test division were weighed. […] The fish were immediately killed by cutting medulla and frozen for preservation. After being thawed, the fish flesh was milled by a coffee mill, and a part thereof was put into a polyethylene bag to measure the color tone thereof by a spectrometer CM-508i (Minolta). […] From a part of the milled fish flesh, the carotenoid colorant was extracted, and analyzed in terms of the content of each carotenoid compound by HPLC.

[4] = Carotenoid content in fish flesh of rainbow trout by HPLC; format: in vivo, Oncorhynchus mykiss; settings: for Ratio to astaxanthin: rainbow trout fish flesh; for Ratio to astaxanthin / Content in fish flesh: 3 months; for Content in fish flesh / concentration at 3 months: rainbow trout, average of 12 fish; for concentration at 3 months: rainbow trout (Oncorhynchus mykiss), fish flesh, oral
Experimental: In the examples, the quantification of the carotenoid colorant was performed using high performance liquid chromatography (HPLC). Two columns of Wakosil-II 5 SIL-100 φ4.6×250 mm (produced by Wako Pure Chemical Industries, Ltd.) were connected to each other. An n-hexane:tetrahydrofuran:methanol (40:20:1) mixed solution was used as a mobile phase. A constant room temperature and a flow rate of 1.0 ml/min were used. The detection was performed at a wavelength of 470 nm. The feed or fish flesh was milled, and then the colorant was extracted with a tetrahydrofuran:methanol (20:1) mixed solution. The colorant was appropriately diluted with the mobile phase and analyzed by HPLC. 50 rainbow trouts (Oncorhynchus mykiss) each weighing about 100 g were cultivated in a water tank as a test division of being fed with the above-described fermented product, and another 50 rainbow trouts each weighing about 100 g were cultivated in a water tank as a test division of being fed with the above-described synthetic product. The trouts of each test division were fed in satiation in fresh water for 3 months. After the 3 months of cultivating, 12 fish of each test division were weighed. […] The fish were immediately killed by cutting medulla. […] After the measurement, the fish flesh was frozen for preservation. After being thawed, the fish flesh of the 12 fish of each test division was analyzed in terms of the content of each carotenoid compound.

Row | Ratio to astaxanthin ([1]; Fermented product division) | Content in fish flesh ([1]; Fermented product division) | Content in fish flesh ([1]; Synthetic product division) | Ratio to astaxanthin ([2]; Fermented product division) | Content in fish flesh ([2]; Fermented product division) | Content in fish flesh ([2]; Synthetic product division) | Ratio to astaxanthin ([3]; Fermented product division) | Content in fish flesh ([3]; Fermented product division) | Content in fish flesh ([3]; Synthetic product division) | Ratio to astaxanthin ([4]; Fermented product division) | Content in fish flesh ([4]; Fermented product division) | Content in fish flesh ([4]; Synthetic product division) | concentration at 3 months ([1]; 70.3 mg/kg feed, Synthetic product division) [ng/g] | concentration at 3 months ([1]; 72.7 mg/kg feed, Fermented product division) [ng/g] | concentration at 12 months ([2]; 79.8 mg/kg feed, Fermented product division) [ng/g] | concentration at 12 months ([2]; 81.6 mg/kg feed, Synthetic product division) [ng/g] | concentration at 6 months ([3]; 43.2 mg/kg feed, Fermented product division) [ng/g] | concentration at 6 months ([3]; 44.3 mg/kg feed, Synthetic product division) [ng/g] | concentration at 3 months ([4]; 63.2 mg/kg feed, Fermented product division) [ng/g] | concentration at 3 months ([4]; 64.6 mg/kg feed, Synthetic product division) [ng/g] | SMILES
1 | 0.5 or less % | 0.02 or less mg/kg | 0.02 or less mg/kg | 0.5 or less % | 0.02 or less mg/kg | 0.02 or less mg/kg | 0.2 or less % | 0.02 or less mg/kg | 0.02 or less mg/kg | 0.6 or less % | 0.02 or less mg/kg | 0.02 or less mg/kg | – | – | – | – | – | – | – | – | CC1=C(/C=C/C(C)=C/C=C/C(C)=C/C=C/C=C(C)/C=C/C=C(C)/C=C/C2=C(C)C(=O)[C@@H](O)CC2(C)C)C(C)(C)CCC1 [3-hydroxyequinenone]
2 | 6.5% | 0.3 mg/kg | 0.02 or less mg/kg | 9.8% | 0.4 mg/kg | 0.02 or less mg/kg | 1.0% | 0.1 mg/kg | 0.02 or less mg/kg | 11.8% | 0.4 mg/kg | 0.02 or less mg/kg | – | – | – | – | – | – | – | – | CC1=C(/C=C/C(C)=C/C=C/C(C)=C/C=C/C=C(C)/C=C/C=C(C)/C=C/C2=C(C)C(=O)CCC2(C)C)C(C)(C)CCC1=O [Canthaxanthin]
3 | 0.5 or less % | 0.02 or less mg/kg | 0.02 or less mg/kg | 0.5 or less % | 0.02 or less mg/kg | 0.02 or less mg/kg | 0.2 or less % | 0.02 or less mg/kg | 0.02 or less mg/kg | 0.6 or less % | 0.02 or less mg/kg | 0.02 or less mg/kg | – | – | – | – | – | – | – | – | CC1=C(/C=C/C(C)=C/C=C/C(C)=C/C=C/C=C(C)/C=C/C=C(C)/C=C/C2=C(C)C(=O)CCC2(C)C)C(C)(C)CCC1 [Equinenone]

Continued, compound first:

Row | SMILES | Ratio to astaxanthin ([1]; Fermented product division) | Content in fish flesh ([1]; Fermented product division) | Content in fish flesh ([1]; Synthetic product division) | Ratio to astaxanthin ([2]; Fermented product division) | Content in fish flesh ([2]; Fermented product division) | Content in fish flesh ([2]; Synthetic product division) | Ratio to astaxanthin ([3]; Fermented product division) | Content in fish flesh ([3]; Fermented product division) | Content in fish flesh ([3]; Synthetic product division) | Ratio to astaxanthin ([4]; Fermented product division) | Content in fish flesh ([4]; Fermented product division) | Content in fish flesh ([4]; Synthetic product division) | concentration at 3 months ([1]; 70.3 mg/kg feed, Synthetic product division) [ng/g] | concentration at 3 months ([1]; 72.7 mg/kg feed, Fermented product division) [ng/g] | concentration at 12 months ([2]; 79.8 mg/kg feed, Fermented product division) [ng/g] | concentration at 12 months ([2]; 81.6 mg/kg feed, Synthetic product division) [ng/g] | concentration at 6 months ([3]; 43.2 mg/kg feed, Fermented product division) [ng/g] | concentration at 6 months ([3]; 44.3 mg/kg feed, Synthetic product division) [ng/g] | concentration at 3 months ([4]; 63.2 mg/kg feed, Fermented product division) [ng/g] | concentration at 3 months ([4]; 64.6 mg/kg feed, Synthetic product division) [ng/g]
4 | CC1=C(/C=C/C(C)=C/C=C/C(C)=C/C=C/C=C(C)/C=C/C=C(C)/C=C/C2=C(C)C(=O)[C@@H](O)CC2(C)C)C(C)(C)C[C@H](O)C1 [Adonixanthin] | 6.5% | 0.3 mg/kg | 0.02 or less mg/kg | 4.9% | 0.2 mg/kg | 0.02 or less mg/kg | 23.1% | 2.4 mg/kg | 0.02 or less mg/kg | 2.9% | 0.1 mg/kg | 0.02 or less mg/kg | – | – | – | – | – | – | – | –
5 | CC1=C(/C=C/C(C)=C/C=C/C(C)=C/C=C/C=C(C)/C=C/C=C(C)/C=C/C2=C(C)C(=O)[C@@H](O)CC2(C)C)C(C)(C)C[C@H](O)C1=O [Astaxanthin] | 100% | – | – | 100% | – | – | 100% | – | – | 100% | – | – | 7200 | 4600 | 4100 | 6200 | 10400 | 12700 | 3400 | 6300
6 | CC1=C(/C=C/C(C)=C/C=C/C(C)=C/C=C/C=C(C)/C=C/C=C(C)/C=C/C2=C(C)C(=O)[C@@H](O)CC2(C)C)C(C)(C)CCC1=O [Phoenicoxanthin] | 45.7% | 2.1 mg/kg | 0.02 or less mg/kg | 41.5% | 1.7 mg/kg | 0.02 or less mg/kg | 11.5% | 1.2 mg/kg | 0.02 or less mg/kg | 67.6% | 2.3 mg/kg | 0.02 or less mg/kg | – | – | – | – | – | – | – | –
